Patent publication US7202280B2, “Methods for the treatment and prevention of pancreatitis and for induction of liver regeneration” (priority 2002, dated 2007)

Key:
[1] = system: SSAT; assay: Hepatic, pancreatic and renal SSAT activity in syngenic and metallothionein-SSAT mice after analogue; format: in vivo, mouse
Procedure: (§1) α-methylspermidine, Bis-α-methylspermine and α-methylspermine were administered in saline. […] The data are expressed as means ±S.D. For statistical analysis, the two-tailed Student's t test was used.

[2] = system: SSAT transgenic rats; assay: Stability of the analogues in the liver of SSAT transgenic rats without or with MDL72527 (hepatic polyamine pools); format: in vivo, rat; conditions: for metabolic stability / conversion in the liver in vivo: without MDL72527
Procedure: FIGS. 8A-8D. Hepatic polyamine pools in SSAT transgenic rats treated with methylated polyamine analogues without or with MDL72527. The rats were injected twice with MDL72527 (50 mg/kg i.p.) at 16-h interval. The polyamine analogues (25 mg/kg i.p.) were injected 2 and 8 h later. The animals were sacrificed 24 h after the last MDL72527 injection. There were three to four animals in each group. Put, putrescine; […] Spd, spermidine; Me-Spd, α-methylspermidine; […] The production of transgenic Wistar rats (UKUR30) and mice (UKU181) harboring metallothionein-SSAT fusion gene (Suppola, […]., Porter, C. W., and Jänne, J. (1999) Biochem. […] (2000) Proc. Natl. Acad. Sci. U.S.A. 97, 8290-8295; Lukkarinen, […]., and Alhonen, L. (1997) Stroke 28, 639-645). Partial hepatectomy was carried out according to the original method of Higgins and Anderson (Higgins, G. H., and Anderson, R. M. (1931) Arch. Pathol. 12, 186-202). Treatments before partial hepatectomy and the determination of DNA synthesis were carried out as in ([…]., Suppola, […]., and […]. Biol. Chem. 277, 39867-39872). Transgenic 10 weeks old male rats were injected twice with MDL72527 (50 mg/kg i.p.) at 16-h interval to inactivate PAO according to (Bolkenius, F. N., Bey, P., and Seiler, N. (1985) Biochim. Biophys. […] An aliquot of the homogenates was used for the polyamine assays. The homogenates were centrifuged (at 13 000×g, for 30 min, at 4° C.) and the supernatants were used for the enzyme activity assays. The Institutional Animal Care and Use Committee of the University of Kuopio and by the Provincial Government approved animal experiments. […] Merck (Darmstadt, Germany).

[3] = system: syngenic and UKU181 transgenic mice; assay: Plasma α-amylase and ALAT in syngenic and transgenic mice after analogue injection; format: in vivo, mouse
Procedure: as §1

[4] = Sg (syngenic) mice, 12.5 mg/kg, 24 h before sacrifice
[5] = Sg (syngenic) mice, 25 mg/kg, 24 h before sacrifice
[6] = Sg (syngenic) mice, 37.5 mg/kg, 24 h before sacrifice
[7] = Sg (syngenic) mice, 50 mg/kg, 24 h before sacrifice
[8] = Tg (transgenic) mice, 12.5 mg/kg, 24 h before sacrifice
[9] = Tg (transgenic) mice, 25 mg/kg, 24 h before sacrifice
[10] = Tg (transgenic) mice, 37.5 mg/kg, 24 h before sacrifice
[11] = Tg (transgenic) mice, 50 mg/kg, 24 h before sacrifice

CC(N)CCNCCCCNCCC(C)N (stereo not drawn) [bis-α-methylspermine, 1,12-dimethylspermine]
SSAT activity, Kidney [1, 4]: 0.32 ± 0.14 ^++ pmoles/10 min/ tissue wet weight | SSAT activity, Pancreas [1, 4]: 3.38 pmoles/10 min/ tissue wet weight | SSAT activity, Kidney [1, 5]: 0.58 ± 0.43 ^+ pmoles/10 min/ tissue wet weight | SSAT activity, Pancreas [1, 5]: 4.23 pmoles/10 min/ tissue wet weight | SSAT activity, Kidney [1, 6]: 0.33 ± 0.14 ^+ pmoles/10 min/ tissue wet weight | SSAT activity, Pancreas [1, 6]: 3.18 pmoles/10 min/ tissue wet weight | SSAT activity, Kidney [1, 7]: 0.60 ± 0.19 ^+ pmoles/10 min/ tissue wet weight | SSAT activity, Pancreas [1, 7]: 8.44 pmoles/10 min/ tissue wet weight | SSAT activity, Kidney [1, 8]: 0.72 ± 0.24 pmoles/10 min/ tissue wet weight | SSAT activity, Liver [1, 8]: 6.56 pmoles/10 min/ tissue wet weight | SSAT activity, Pancreas [1, 8]: 34.11 pmoles/10 min/ tissue wet weight | SSAT activity, Kidney [1, 9]: 1.48 ± 0.92 pmoles/10 min/ tissue wet weight | SSAT activity, Liver [1, 9]: 9.08 pmoles/10 min/ tissue wet weight | SSAT activity, Pancreas [1, 9]: 65.20 pmoles/10 min/ tissue wet weight | SSAT activity, Kidney [1, 10]: 8.04 ± 14.36 pmoles/10 min/ tissue wet weight | SSAT activity, Liver [1, 10]: 55.79 pmoles/10 min/ tissue wet weight | SSAT activity, Pancreas [1, 10]: 124.95 pmoles/10 min/ tissue wet weight | SSAT activity, Kidney [1, 11]: 1.24 ± 0.39 pmoles/10 min/ tissue wet weight | SSAT activity, Liver [1, 11]: 13.11 pmoles/10 min/ tissue wet weight | SSAT activity, Pancreas [1, 11]: 62.05 pmoles/10 min/ tissue wet weight | metabolic stability / conversion in the liver in vivo ([2]; 25 mg/kg i.p. twice): converted to α-methylspermidine, but less effectively than α-methylspermine | conversion to α-methylspermidine in the liver ([2]; with MDL72527 50 mg/kg i.p. twice): totally prevented | Plasma ALAT [3, 4]: 49.33 U/dm^3 | Plasma α-amylase [3, 4]: 3167.33 U/dm^3 | Plasma ALAT [3, 5]: 57.67 U/dm^3 | Plasma α-amylase [3, 5]: 2931.00 U/dm^3 | Plasma ALAT [3, 6]: 35.67 U/dm^3 | Plasma α-amylase [3, 6]: 2827.00 U/dm^3 | Plasma ALAT [3, 7]: 62.00 U/dm^3 | Plasma α-amylase [3, 7]: 2715.33 U/dm^3 | Plasma ALAT [3, 8]: 50.67 U/dm^3 | Plasma α-amylase [3, 8]: 2822.67 U/dm^3 | Plasma ALAT [3, 9]: 45.33 U/dm^3 | Plasma α-amylase [3, 9]: 3242.33 U/dm^3 | Plasma ALAT [3, 10]: 31.00 U/dm^3 | Plasma α-amylase [3, 10]: 2540.00 U/dm^3 | Plasma ALAT [3, 11]: 60.00 U/dm^3 | Plasma α-amylase [3, 11]: 2886.00 U/dm^3

CC(N)CCNCCCCN (stereo not drawn) [α-methylspermidine, 1-methylspermidine]
SSAT activity, Kidney ([1]; Sg mice, 50 mg/kg, 24 h): 4.98 pmoles/10 min/mg tissue wet weight | SSAT activity, Liver ([1]; Sg mice, 50 mg/kg, 24 h): 3.74 pmoles/10 min/mg tissue wet weight | SSAT activity, Pancreas ([1]; Sg mice, 50 mg/kg, 24 h): 6.58 pmoles/10 min/mg tissue wet weight | SSAT activity, Kidney ([1]; Sg mice, 100 mg/kg, 24 h): 4.61 pmoles/10 min/mg tissue wet weight | SSAT activity, Liver ([1]; Sg mice, 100 mg/kg, 24 h): 3.77 pmoles/10 min/mg tissue wet weight | SSAT activity, Pancreas ([1]; Sg mice, 100 mg/kg, 24 h): 7.50 pmoles/10 min/mg tissue wet weight | SSAT activity, Kidney ([1]; Sg mice, 150 mg/kg, 24 h): 5.05 pmoles/10 min/mg tissue wet weight | SSAT activity, Liver ([1]; Sg mice, 150 mg/kg, 24 h): 4.16 pmoles/10 min/mg tissue wet weight | SSAT activity, Pancreas ([1]; Sg mice, 150 mg/kg, 24 h): 6.91 pmoles/10 min/mg tissue wet weight | SSAT activity, Liver ([1]; Sg mice, 250 mg/kg, 24 h): 3.75 pmoles/10 min/mg tissue wet weight | SSAT activity, Pancreas ([1]; Sg mice, 250 mg/kg, 24 h): 12.10 pmoles/10 min/mg tissue wet weight | SSAT activity, Liver ([1]; Sg mice, 375 mg/kg, 24 h): 9.52 pmoles/10 min/mg tissue wet weight | SSAT activity, Pancreas ([1]; Sg mice, 375 mg/kg, 24 h): 18.19 pmoles/10 min/mg tissue wet weight | SSAT activity, Kidney ([1]; Sg mice, 500 mg/kg, 24 h): 14.67 pmoles/10 min/mg tissue wet weight | SSAT activity, Liver ([1]; Sg mice, 500 mg/kg, 24 h): 16.06 pmoles/10 min/mg tissue wet weight | SSAT activity, Pancreas ([1]; Sg mice, 500 mg/kg, 24 h): 26.85 pmoles/10 min/mg tissue wet weight | SSAT activity, Kidney ([1]; Tg mice, 50 mg/kg, 24 h): 3.19 pmoles/10 min/mg tissue wet weight | SSAT activity, Liver ([1]; Tg mice, 50 mg/kg, 24 h): 74.88 pmoles/10 min/mg tissue wet weight | SSAT activity, Pancreas ([1]; Tg mice, 50 mg/kg, 24 h): 179.02 pmoles/10 min/mg tissue wet weight | SSAT activity, Kidney ([1]; Tg mice, 100 mg/kg, 24 h): 3.13 pmoles/10 min/mg tissue wet weight | SSAT activity, Liver ([1]; Tg mice, 100 mg/kg, 24 h): 74.88 pmoles/10 min/mg tissue wet weight | SSAT activity, Pancreas ([1]; Tg mice, 100 mg/kg, 24 h): 226.27 pmoles/10 min/mg tissue wet weight | SSAT activity, Kidney ([1]; Tg mice, 150 mg/kg, 24 h): 3.36 pmoles/10 min/mg tissue wet weight | SSAT activity, Liver ([1]; Tg mice, 150 mg/kg, 24 h): 81.59 pmoles/10 min/mg tissue wet weight | SSAT activity, Pancreas ([1]; Tg mice, 150 mg/kg, 24 h): 183.078 pmoles/10 min/mg tissue wet weight | SSAT activity, Liver ([1]; Tg mice, 250 mg/kg, 24 h): 95.04 pmoles/10 min/mg tissue wet weight | SSAT activity, Pancreas ([1]; Tg mice, 250 mg/kg, 24 h): 188.45 pmoles/10 min/mg tissue wet weight | SSAT activity, Liver ([1]; Tg mice, 375 mg/kg, 24 h): 135.53 pmoles/10 min/mg tissue wet weight | SSAT activity, Pancreas ([1]; Tg mice, 375 mg/kg, 24 h): 133.57 pmoles/10 min/mg tissue wet weight | accumulation in the liver (tissue concentration) ([2]; 25 mg/kg i.p. twice): highest tissue concentrations | metabolic stability / conversion in the liver in vivo ([2]; 25 mg/kg i.p. twice): metabolically stable | Plasma ALAT ([3]; Sg mice, 50 mg/kg, 24 h): 17.90 U/dm^3 | Plasma α-amylase ([3]; Sg mice, 50 mg/kg, 24 h, not corrected constant): 266.76 ± 23.00 ^+ U/dm^3 | Plasma ALAT ([3]; Sg mice, 100 mg/kg, 24 h): 19.21 U/dm^3 | Plasma α-amylase ([3]; Sg mice, 100 mg/kg, 24 h, not corrected constant): 281.81 ± 24.11 U/dm^3 | Plasma ALAT ([3]; Sg mice, 150 mg/kg, 24 h): 18.33 U/dm^3 | Plasma α-amylase ([3]; Sg mice, 150 mg/kg, 24 h, not corrected constant): 284.83 ± 26.90 U/dm^3 | Plasma ALAT ([3]; Sg mice, 250 mg/kg, 24 h): 66.00 U/dm^3 | Plasma α-amylase ([3]; Sg mice, 250 mg/kg, 24 h, not corrected constant): 287.41 ± 74.99 U/dm^3 | Plasma ALAT ([3]; Sg mice, 375 mg/kg, 24 h): 111.39 U/dm^3 | Plasma α-amylase ([3]; Sg mice, 375 mg/kg, 24 h, not corrected constant): 654.32 ± 402.95 U/dm^3 | Plasma ALAT ([3]; Sg mice, 500 mg/kg, 24 h): 32.74 U/dm^3 | Plasma α-amylase ([3]; Sg mice, 500 mg/kg, 24 h, not corrected constant): 370.45 ± 104.58 U/dm^3 | Plasma ALAT ([3]; Tg mice, 50 mg/kg, 24 h): 34.92 U/dm^3 | Plasma α-amylase ([3]; Tg mice, 50 mg/kg, 24 h, not corrected constant): 341.62 ± 44.99 U/dm^3 | Plasma ALAT ([3]; Tg mice, 100 mg/kg, 24 h): 44.96 U/dm^3 | Plasma α-amylase ([3]; Tg mice, 100 mg/kg, 24 h, not corrected constant): 302.90 ± 29.54 U/dm^3 | Plasma ALAT ([3]; Tg mice, 150 mg/kg, 24 h): 41.90 U/dm^3 | Plasma α-amylase ([3]; Tg mice, 150 mg/kg, 24 h, not corrected constant): 275.79 ± 34.37 U/dm^3 | Plasma ALAT ([3]; Tg mice, 250 mg/kg, 24 h): 34.05 U/dm^3 | Plasma α-amylase ([3]; Tg mice, 250 mg/kg, 24 h, not corrected constant): 389.38 ± 213.31 U/dm^3 | Plasma ALAT ([3]; Tg mice, 375 mg/kg, 24 h): 52.38 U/dm^3 | Plasma α-amylase ([3]; Tg mice, 375 mg/kg, 24 h, not corrected constant): 314.51 ± 20.72 U/dm^3
